Assay results: US20160015669A1, “COMPOUND, 1, 3-DIOLEIN-2-LINOLEIN, AND PHARMACEUTICAL PREPARATION AND USE THEREOF” (ZHEJIANG KANGLAITE GROUP CO., LTD., priority 2014, published 2016)
Values after ≈ are worked out from the molar mass of the structure shown. One block for each compound: values may come before it.

Legend:
Format in all cases: cell-based
[1] = tested on: COLO205 (human colonic cancer cells); test: MTT method, inhibition of cell growth in vitro; settings: 48 h; for IC50: COLO 205, COLO205, MTT
Source text: (§1) A. Experimental Materials and the Preparation Thereof: • (1) Cell lines: PANC-1 (human pancreatic cancer cells), SKOV3 (human ovarian cancer cells), MCF-7 (human breast cancer cells), SMMC-7721 (human liver cancer cells), A549 (human lung cancer cells), BGC-823 (human gastric cancer cells), COLO205 (human colonic cancer cells), storaged and passaged maintainably in Research and Evaluation Center for Pharmacology, Shanghai Institute of Pharmaceutical Industry; • (2) DMEM complete medium supplied with 10% newborn calf serum (GIBCO BRL), 1% of penicillin (100 U/mL)+streptomycin (100 μg/mL); • (3) 0.25% trypsin solution, purchased from Invitrogen Corp. and storaged at −20; • (4) Phosphate buffer (PBS): NaCl 8 g, KCl 0.2 g, Na2HPO4 1.15 g and KH2PO4 0.2 g, dissolved in 1 L double-distilled water and autoclaved at 121 for 20 min, then storaged at 4; • (5) MTT (AMRESCO) solution: 5 mg/ml in PBS; • (6) Formazan crystal dissolving solution: SDS 10 g, isobutanol 5 ml and concentrated hydrochloric acid 0.1 ml, dissolved in 100 ml of deionized double distilled water.
(§2) The inhibition effects of the compound of formula (I) on the above-mentioned cell lines were detected by using MTT method. The specific procedures were as follows:
(§3) (1) Cell culture: (a) Storaged cells were taken out from the liquid nitrogen, thawed quickly in a 37 water bath, then aseptically transferred into 6 ml of cellular medium in a 10 ml centrifugal tube, centrifuged at 1000 rpm for 5 min. The supernatant was discarded, then the precipitated cells were re-suspended in 5-6 ml cellular media by pipetting and transferred into a flask in a 37 incubator for cell culture; (b) Next day, the flask was taken out from the incubator and the used medium was discarded, then the cells were incubated in 5-6 ml fresh medium in the 37 incubator; (c) On the third day, the flask was taken out from the incubator and the used medium was discarded, then 2-3 ml of PBS (pH7.4) was added into the flask with rocking for cleaning it and the used PBS was discarded. Such a cellular cleaning step was repeated once again. 3-5 drops of 0.25% trypsin solution were added into the flask with sloshing, thus well-distributed in it. The flask was capped and placed in a 37 incubator for about 3 min, and the separation of cells from the flask wall was observed under the microscope. 2 ml of cellular medium was added and cells were separated completely from the flask wall by pipetting, then the cell suspension was transferred into 2 separate clean flasks, each containing 5-6 ml medium. The cell suspension was well-distributed by pipetting, then the flask was placed in a 37 incubator. (d) Step(c) was repeated every other day. In the whole cultivation process, adherent cells were not allowed to grow too dense and suspension cells were always maintained at a logarithmic growth stage.
(§4) (2) Preparation of the sample and the control: A proper amount of sample of the compound of formula (I) was dissolved in DMSO to obtain a solution in a concentration of 10 mg/ml. This solution was diluted in a gradient dilution with PBS to obtain a set of sample solutions in the concentration of 10 mg/ml, 5000 μg/ml, 2500 μg/ml, 1250 μg/ml, 625 μg/ml and 312.5 μg/ml, respectively.
(§5) (3) Each diluted sample solution was added into duplicated wells of a 96 well flat-bottom microplate (10 μl/well). The correspondingly diluted DMSO solutions, as controls, were added into the wells of the microplate.
(§6) (4) Cells in a logarithmic growth stage were trypsinized and washed, then re-suspended in the medium containing 10% calf serum. The number of living cells was counted in Trypan blue dye exclusion method and cell suspensions were adjusted into a density of 2×10^5 cell/ml.
(§7) (5) The cell-contained 96 well flat-bottom microplate was placed in a 37 incubator and cells were incubated under 5% CO2 for 48 h.
(§8) (6) 20 it of 5 mg/ml MTT solution was added into each well and cells were incubated continuously in the incubator for 3-4 h. […]

[2] = tested on: SMMC-7721 (human liver cancer cells); test: MTT method, inhibition of cell growth in vitro; settings: 48 h; for IC50: SMMC-7721, MTT
Source text: as §1, §2, §3, §4, §5, §6, §7, §8

[3] = tested on: BGC-823 (human gastric cancer cells); test: MTT method, inhibition of cell growth in vitro; settings: 48 h; for IC50: BGC-823, MTT
Source text: as §1, §2, §3, §4, §5, §6, §7, §8

[4] = tested on: PANC-1 (human pancreatic cancer cells); test: MTT method, inhibition of cell growth in vitro; settings: 48 h; for IC50: PANC-1, MTT
Source text: as §1, §2, §3, §4, §5, §6, §7, §8

[5] = tested on: A549 (human lung cancer cells); test: MTT method, inhibition of cell growth in vitro; settings: 48 h
Source text: as §1, §2, §3, §4, §5, §6, §7, §8

[6] = tested on: SKOV3 (human ovarian cancer cells); test: MTT method, inhibition of cell growth in vitro; settings: 48 h
Source text: as §1, §2, §3, §4, §5, §6, §7, §8

[7] = tested on: MCF-7 (human breast cancer cells); test: MTT method, inhibition of cell growth in vitro; settings: 48 h
Source text: as §1, §2, §3, §4, §5, §6, §7, §8

7 human tumor cell lines = test: MTT method, overall conclusion on 7 human tumor cell lines; settings: various concentrations
Source text: as §1
The inhibition effects of the compound of formula (I) on the above-mentioned cell lines were detected by using MTT method. The specific procedures were as follows: […]

IC50 [1]: 0.75 µg/mL (≈ 0.878 µM)
IC50 [2]: 0.12 µg/mL (≈ 0.141 µM)
IC50 [3]: 0.24 µg/mL (≈ 0.281 µM)
IC50 [4]: 0.44 µg/mL (≈ 0.515 µM)
SMILES: CC(=O)O[C@H]1C(=O)[C@@]2(C)[C@H]([C@H](OC(=O)c3ccccc3)[C@]3(O)C[C@H](OC(=O)[C@H](O)[C@@H](NC(=O)c4ccccc4)c4ccccc4)C(C)=C1C3(C)C)[C@]1(OC(C)=O)CO[C@@H]1C[C@@H]2O [Taxol, reference compound]

IC50 ([5]; A549, MTT): 156 µg/mL
IC50 [1]: 209 µg/mL
IC50 [2]: 150 µg/mL
IC50 [3]: 85 µg/mL
IC50 [4]: 509 µg/mL
IC50 ([6]; SK-OV-3, SKOV3, MTT): 92.6 µg/mL
IC50 ([7]; MCF7, MCF-7, MTT): 106 µg/mL
SMILES: CCCCCC=CCC=CCCCCCCCC(=O)OC(COC(=O)CCCCCCCC=CCCCCCCCC)COC(=O)CCCCCCCC=CCCCCCCCC (centres unmarked) [compound of formula (I), 1,3-diolein-2-linolein]
inhibition at 31.25 µg/mL ([5]; A549, 31.25 μg/ml, read-out: Inhibition rate on the cell growth): 5.16%
inhibition at 62.5 µg/mL ([5]; A549, 62.5 μg/ml, read-out: Inhibition rate on the cell growth): 25.6%
inhibition at 125 µg/mL ([5]; A549, 125 μg/ml, read-out: Inhibition rate on the cell growth): 46.4%
inhibition at 250 µg/mL ([5]; A549, 250 μg/ml, read-out: Inhibition rate on the cell growth): 50.5%
inhibition at 500 µg/mL ([5]; A549, 500 μg/ml, read-out: Inhibition rate on the cell growth): 67%
inhibition at 1000 µg/mL ([5]; A549, 1000 μg/ml, read-out: Inhibition rate on the cell growth): 98.2%
inhibition at 31.25 µg/mL ([1]; COLO 205, COLO205, 31.25 μg/ml, read-out: Inhibition rate on the cell growth): 8.95%
inhibition at 62.5 µg/mL ([1]; COLO 205, COLO205, 62.5 μg/ml, read-out: Inhibition rate on the cell growth): 10.7%
inhibition at 125 µg/mL ([1]; COLO 205, COLO205, 125 μg/ml, read-out: Inhibition rate on the cell growth): 12.6%
inhibition at 250 µg/mL ([1]; COLO 205, COLO205, 250 μg/ml, read-out: Inhibition rate on the cell growth): 43.9%
inhibition at 500 µg/mL ([1]; COLO 205, COLO205, 500 μg/ml, read-out: Inhibition rate on the cell growth): 82.3%
inhibition at 1000 µg/mL ([1]; COLO 205, COLO205, 1000 μg/ml, read-out: Inhibition rate on the cell growth): 93.8%
inhibition at 31.25 µg/mL ([2]; SMMC-7721, 31.25 μg/ml, read-out: Inhibition rate on the cell growth): 8.81%
inhibition at 62.5 µg/mL ([2]; SMMC-7721, 62.5 μg/ml, read-out: Inhibition rate on the cell growth): 13.4%
inhibition at 125 µg/mL ([2]; SMMC-7721, 125 μg/ml, read-out: Inhibition rate on the cell growth): 38.5%
inhibition at 250 µg/mL ([2]; SMMC-7721, 250 μg/ml, read-out: Inhibition rate on the cell growth): 62.3%
inhibition at 500 µg/mL ([2]; SMMC-7721, 500 μg/ml, read-out: Inhibition rate on the cell growth): 80%
inhibition at 1000 µg/mL ([2]; SMMC-7721, 1000 μg/ml, read-out: Inhibition rate on the cell growth): 98.8%
inhibition at 31.25 µg/mL ([3]; BGC-823, 31.25 μg/ml, read-out: Inhibition rate on the cell growth): 8.31%
inhibition at 62.5 µg/mL ([3]; BGC-823, 62.5 μg/ml, read-out: Inhibition rate on the cell growth): 63.8%
inhibition at 125 µg/mL ([3]; BGC-823, 125 μg/ml, read-out: Inhibition rate on the cell growth): 79%
inhibition at 250 µg/mL ([3]; BGC-823, 250 μg/ml, read-out: Inhibition rate on the cell growth): 76.2%
inhibition at 500 µg/mL ([3]; BGC-823, 500 μg/ml, read-out: Inhibition rate on the cell growth): 85%
inhibition at 1000 µg/mL ([3]; BGC-823, 1000 μg/ml, read-out: Inhibition rate on the cell growth): 98.5%
inhibition at 62.5 µg/mL ([4]; PANC-1, 62.5 μg/ml, read-out: Inhibition rate on the cell growth): 0.8%
inhibition at 125 µg/mL ([4]; PANC-1, 125 μg/ml, read-out: Inhibition rate on the cell growth): 2.01%
inhibition at 250 µg/mL ([4]; PANC-1, 250 μg/ml, read-out: Inhibition rate on the cell growth): 25.9%
inhibition at 500 µg/mL ([4]; PANC-1, 500 μg/ml, read-out: Inhibition rate on the cell growth): 48.1%
inhibition at 1000 µg/mL ([4]; PANC-1, 1000 μg/ml, read-out: Inhibition rate on the cell growth): 75%
inhibition at 31.25 µg/mL ([6]; SK-OV-3, SKOV3, 31.25 μg/ml, read-out: Inhibition rate on the cell growth): 9.97%
inhibition at 62.5 µg/mL ([6]; SK-OV-3, SKOV3, 62.5 μg/ml, read-out: Inhibition rate on the cell growth): 34%
inhibition at 125 µg/mL ([6]; SK-OV-3, SKOV3, 125 μg/ml, read-out: Inhibition rate on the cell growth): 76.8%
inhibition at 250 µg/mL ([6]; SK-OV-3, SKOV3, 250 μg/ml, read-out: Inhibition rate on the cell growth): 79.4%
inhibition at 500 µg/mL ([6]; SK-OV-3, SKOV3, 500 μg/ml, read-out: Inhibition rate on the cell growth): 93.8%
inhibition at 1000 µg/mL ([6]; SK-OV-3, SKOV3, 1000 μg/ml, read-out: Inhibition rate on the cell growth): 99.3%
inhibition at 31.25 µg/mL ([7]; MCF7, MCF-7, 31.25 μg/ml, read-out: Inhibition rate on the cell growth): 13.3%
inhibition at 62.5 µg/mL ([7]; MCF7, MCF-7, 62.5 μg/ml, read-out: Inhibition rate on the cell growth): 31.5%
inhibition at 125 µg/mL ([7]; MCF7, MCF-7, 125 μg/ml, read-out: Inhibition rate on the cell growth): 62.3%
inhibition at 250 µg/mL ([7]; MCF7, MCF-7, 250 μg/ml, read-out: Inhibition rate on the cell growth): 67.1%
inhibition at 500 µg/mL ([7]; MCF7, MCF-7, 500 μg/ml, read-out: Inhibition rate on the cell growth): 68.8%
inhibition at 1000 µg/mL ([7]; MCF7, MCF-7, 1000 μg/ml, read-out: Inhibition rate on the cell growth): 99.7%
Inhibition on 7 human tumor cell lines (in words) (7 human tumor cell lines): obvious inhibition on 7 human tumor cell lines
